Results on 6 compounds are retold here after publication PMC6331977, “Bioassay-Guided Isolation and Identification of Xanthine Oxidase Inhibitory Constituents from the Leaves of Perilla frutescens” (Molecules, 2015).

Experiment [1] has as its target T1, xanthine oxidase (XO) (Bos taurus, UniProt P80457). In words: Assay of XO inhibitory modes of action (enzyme kinetics, Lineweaver-Burk plots). The settings on record: for Mode of Inhibition: Lineweaver-Burk plots.
Experiment [2] has as its target T1, xanthine oxidase (XO). Nature of the experiment: Assay of XO activity (uric acid formation determined by HPLC). More on the design: purchased Sigma-Aldrich Chemicals (St. Louis, MO, USA). Particulars: for XO inhibitory activity (in words): in vitro; for IC50: xanthine as substrate, 25 °C, pH 7.5, uric acid by HPLC. Type of experiment: biochemical.

In general, Ki refers to the dissociation constant of the complex between target and ligand, obtained from inhibition or displacement. Lower therefore signals a stronger hold on the target. Broadly, the IC50 is the concentration needed to halve the response being measured. A higher IC50 goes with weaker potency.

T1 sequence (P80457 whole entry): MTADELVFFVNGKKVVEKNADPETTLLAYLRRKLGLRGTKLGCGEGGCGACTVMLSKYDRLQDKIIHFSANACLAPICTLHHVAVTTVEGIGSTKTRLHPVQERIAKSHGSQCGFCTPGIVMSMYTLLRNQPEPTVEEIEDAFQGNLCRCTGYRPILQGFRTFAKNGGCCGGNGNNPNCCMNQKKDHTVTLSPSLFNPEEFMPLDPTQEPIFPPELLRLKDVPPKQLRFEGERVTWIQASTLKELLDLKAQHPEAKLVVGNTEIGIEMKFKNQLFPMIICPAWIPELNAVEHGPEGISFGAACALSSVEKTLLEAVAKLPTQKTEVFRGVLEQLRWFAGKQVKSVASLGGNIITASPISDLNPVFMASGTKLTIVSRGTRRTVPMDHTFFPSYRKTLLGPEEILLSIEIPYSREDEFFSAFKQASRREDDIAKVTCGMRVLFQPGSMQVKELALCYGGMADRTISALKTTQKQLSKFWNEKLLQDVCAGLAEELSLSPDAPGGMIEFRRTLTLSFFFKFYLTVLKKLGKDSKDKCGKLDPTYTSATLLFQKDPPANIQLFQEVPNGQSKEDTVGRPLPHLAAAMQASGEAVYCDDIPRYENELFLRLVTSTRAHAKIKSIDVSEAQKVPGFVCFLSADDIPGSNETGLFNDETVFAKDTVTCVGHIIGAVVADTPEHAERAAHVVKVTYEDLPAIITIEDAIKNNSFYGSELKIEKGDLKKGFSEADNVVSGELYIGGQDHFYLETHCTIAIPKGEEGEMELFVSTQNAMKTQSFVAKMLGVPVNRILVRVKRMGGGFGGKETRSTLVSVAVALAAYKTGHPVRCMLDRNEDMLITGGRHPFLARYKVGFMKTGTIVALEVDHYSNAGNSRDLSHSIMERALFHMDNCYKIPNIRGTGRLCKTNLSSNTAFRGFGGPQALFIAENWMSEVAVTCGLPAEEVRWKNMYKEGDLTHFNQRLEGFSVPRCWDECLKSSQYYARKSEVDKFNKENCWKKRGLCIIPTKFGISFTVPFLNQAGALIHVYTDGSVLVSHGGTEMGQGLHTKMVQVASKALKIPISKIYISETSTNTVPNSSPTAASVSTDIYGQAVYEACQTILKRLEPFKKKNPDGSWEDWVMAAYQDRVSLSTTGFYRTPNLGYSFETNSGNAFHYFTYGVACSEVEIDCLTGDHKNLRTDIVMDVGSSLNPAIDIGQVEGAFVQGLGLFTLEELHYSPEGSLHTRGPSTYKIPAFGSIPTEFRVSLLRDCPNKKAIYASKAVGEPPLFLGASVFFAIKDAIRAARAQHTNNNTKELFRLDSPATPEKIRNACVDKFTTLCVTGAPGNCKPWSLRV

Regarding `Oc1ncnc2[nH]ncc12` [Allopurinol, reference compound], the figures for the “Mode of Inhibition” value on xanthine oxidase (XO) [1] and on xanthine oxidase (XO) [1] (listed as allopurinol) were “Competitive” and “competitive inhibitions”, respectively.
As for `O=c1cc(-c2ccc(O)cc2)oc2cc(O)cc(O)c12` [Apigenin, apigenin], on xanthine oxidase (XO) [1], the Ki amounted to 0.11 µM and the “Mode of Inhibition” value was “Mixed”. At xanthine oxidase (XO) [1] (listed as apigenin), the “Mode of Inhibition” value is “mixed inhibition mode”. At xanthine oxidase (XO) [2], the “XO inhibitory activity (in words)” value is recorded as “could significantly inhibit the production of uric acid” and the IC50 worked out at 0.44 µM.
Consider `O=C(O)/C=C/c1ccc(O)c(O)c1` [Caffeic acid, caffeic acid], for which the Ki on xanthine oxidase (XO) [1] came out at 9.22 µM. Further, it took 121 µM to reach half-maximal inhibition against xanthine oxidase (XO) [2] (IC50).
`COC(=O)[C@@H](Cc1ccc(O)c(O)c1)OC(=O)/C=C/c1ccc(O)c(O)c1` [Methyl rosmarinate, methyl rosmarinate]: at xanthine oxidase (XO) [1], the affinity, expressed as Ki, was 2.85 µM and the “Mode of Inhibition” value is recorded as “Competitive”. Moreover, on xanthine oxidase (XO) [2], the “XO inhibitory activity (in words)” value was “could significantly inhibit the production of uric acid” and the half-maximal inhibitory concentration (IC50) worked out at 26.6 µM.
Take `O=C(/C=C/c1ccc(O)c(O)c1)O[C@H](Cc1ccc(O)c(O)c1)C(=O)O` [Rosmarinic acid, rosmarinic acid]: at xanthine oxidase (XO) [1], the Ki amounted to 26.2 µM and the “Mode of Inhibition” value is on record as “Competitive”. Besides, on xanthine oxidase (XO) [2], the “XO inhibitory activity (in words)” value is reported as “weak XO inhibitory activities” and the midpoint of inhibition, the IC50, lay at 91.7 µM.
With `C=COC(=O)/C=C/c1ccc(O)c(O)c1` [Vinyl caffeate, vinyl caffeate], at xanthine oxidase (XO) [1], affinity was put at a Ki of 5.05 µM and the “Mode of Inhibition” value was “Competitive”. At xanthine oxidase (XO) [2], the “XO inhibitory activity (in words)” value is listed as “could significantly inhibit the production of uric acid” and half-maximal inhibition (IC50) was put at 31.3 µM.
